What was measured:
[1] = test system: other detected serine hydrolase targets; experiment: Family-wide gel-based profiling of serine hydrolases in MDA-MB231 and PC3 cells (selectivity); assay type: cell-based, human; settings: live cells
Protocol: Proteome Preparation: Human PC3 and MDA-MB231 cells were grown in Roswell Park Memorial Institute (RPMI) medium and Dulbecco's Modified Eagle Medium (DMEM), respectively, supplemented with 10% fetal bovine serum (FBS) and 2 mM L-glutamine, and cultured in a humidified 5% CO2 incubator at 37° C. Cells were washed twice with phosphate buffered saline (PBS, pH 7.5), collected by scraping, resuspended in 0.2 ml PBS, sonicated, and fractionated via centrifugation (100,000×g, 45 min) into a pellet (containing membrane proteins) and supernatant (containing soluble proteins). […] Protein concentrations were determined using a Bradford protein assay kit (Bio-Rad, Hercules, California, United States of America)). […]
Gel-based Activity Profiling: Cell lysates were treated with 1 μM fluorophosphonate-rhodamine (FP-rho) for 30 min at room temperature (50 μL total reaction volume). Reactions were quenched with one volume of standard 4× sodium dodecyl sulfate/polyacrylamide gel electrophoresis (SDS/PAGE) reducing sample buffer, resolved on 10% acrylamide SDS/PAGE gels, and visualized in-gel with a fluorescence scanner sold under the tradename CHEMIDOC™ MP (Bio-Rad, Hercules, California, United States of America). Densitometric quantification of band intensities were used to calculate the percent inhibition via JW199. […]

[2] = Radiochemical stability by radioactive HPLC; assay type: physicochemical; settings: physiologic buffers; PBS containing 10% ethanol, up to 120 min
Protocol: Stability analyses of HPLC-purified […]: Radiochemical stability testing of the synthesized [^18F]JW199, was performed with multiple HPLC injections using increasing amounts of activity to keep the peak heights roughly similar. 64 μCi was injected 83 minutes post synthesis, and this was considered the t=0 time point. The subsequent injection was 79 μCi at 30-minutes, followed by three more injections of 86, 106, and 117 μCi at 60, 90, and 120-minutes respectively.

[3] = test system: MDA-MB231 human breast cancer xenografts; experiment: PET/CT imaging and ex vivo biodistribution in mice bearing MDA-MB231 xenografts; set-up: species or system mouse
Protocol: In vivo microPET/CT imaging: All imaging was performed by the Integrated Small Animal Imaging Research Resource (iSAIRR) at the University of Chicago (Chicago, Illinois, United States of America) on a β-Cube and X-Cube (Molecubes NV, Ghent, Belgium). Athymic nude mice (males and females, aged 6 to 8 weeks; HSD strain, Harlan-Envigo, Indianapolis, Indiana, United States of America) were anesthetized via inhalation with 1.5-2% isoflurane and injected with approximately 150 μCi (5.55 Megabecquerel (MBq)) of [^18F]JW199 in 150 μL of physiologic saline through the lateral tail vein, followed by awake incubation for 1 hour and 45 minutes. MicroCT images were acquired using the general purpose protocol, with energy of 50 KeV and a tube current of 100 μA. Respiration rate and body temperature of the animal were constantly monitored during the entire scanning period with the p-Cube and X-Cube onboard monitoring system. […]
Dynamic reconstruction was performed using a three-dimensional OSEM algorithm with 400 μm isometric voxel size. […] 3D regions of interest (ROIs) were drawn and standardized uptake values (SUVs) and percent injected dose per cubic centimeter of tissue (% ID/cc) were calculated for each ROI and time point. % ID/cc was calculated as a ratio of tissue radioactivity concentration (mCi/g) at time of scan to total injected activity (millicurie (mCi)) at time of scan. […]

CC(C)c1ccccc1OC(=O)NCCc1ccc(OCC[18F])cc1 [[^18F]JW199, fluorine-18-labeled 2-isopropylphenyl-(4-(2-fluoroethoxy)phenethyl)carbamate]
selectivity over other detected serine hydrolase targets [1]: greater than 1,000 fold | chemical stability [2]: chemically stable | radiotracer accumulation in tumor ([3]; 150 μCi i.v., dynamic PET/CT): radiotracer accumulation in breast tumor xenograft cells | total radioactivity in bulk tumor tissue relative to surrounding muscle ([3]; ex vivo quantitation, 3 hours after injection, breast cancer model): higher total radioactivity
